Test results published in patent US8232407B2, “Nitrogenous heterocyclic compounds with insecticidal activity, and the preparation and use thereof” (East China University of Science and Technology, priority 2008, dated 2012).

Legend:
Type in all cases: in vivo
Details in all cases: in vivo
[1] = system: Aphis craccivoral; assay: Insecticidal activities to aphids, immersion method
Outline: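 Immersion assay: compound diluted from 10 g/L DMF stock to 500 ppm in 0.2 mL/L Triton X-100, sprout-feeding wingless adults dipped 5 s. Kept at 23° C, three repeats; 24 h mortality calculated relative to surviving Triton-treated controls.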

[2] = system: Nilaparvata lugens; assay: Insecticidal activities to plant hopper, spraying method
Outline: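 Spray test: acetone solutions of 500 down to 0.79 ppm, 2 ml per tumbler holding 10 planthoppers introduced 6 h earlier, triplicate, aqueous acetone as control. Mortality at 24 h calculated from survivors relative to control.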

[3] = system: Pseudaletia separate Walker; assay: Insecticidal activities to armyworm, leaf dipping and feeding
Outline: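 Armyworms (10 per tumbler, 3 replicates) ate fresh maize leaves that had been immersed for 3 seconds in compound solutions of 1.57-500 ppm in acetone, or in aqueous acetone for controls. Kills were scored at 24 h, and mortality was calculated relative to survivors in the control group.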

[4] = system: Plutella xylostella; assay: Insecticidal activities to diamondback moth, feeding dipped leaves
Outline: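 Mortality was scored 24 h after larvae of Plutella xylostella (10 per treatment, 3 repeats) fed on cabbage leaves immersed 3 s in test solution and dried at room temperature. It was computed relative to survivors in a water-treated control.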

SMILES | Aphis craccivoral Mortality (%) 500 ppm [1] [%] | Nilaparvata lugens Mortality (%) 500 ppm [2] [%] | Pseudaletia separate Walker Mortality (%) 500 ppm [3] [%] | Plutella xylostella Mortality (%) 500 ppm [4] [%]
Cc1ccc(C=C(C2=NCCN2Cc2ccc(Cl)nc2)[N+](=O)[O-])o1 [Compound 12] | 100 | 100 | 100 | 100
O=[N+]([O-])C(=Cc1cc(Br)c(Br)o1)C1=NCCN1Cc1ccccc1 [Compound 110] | 58 | 23 | 85 | 51
CC[N+]1=C(C(=Cc2ccc([N+](=O)[O-])s2)[N+](=O)[O-])N(Cc2ccc(Cl)nc2)CC1.[Cl-] [Compound 293] | 100 | 100 | 100 | 100
C[N+]1=C(C(=Cc2ccc(Br)s2)[N+](=O)[O-])N(Cc2ccc(Cl)nc2)CC1.[Cl-] [Compound 263] | 100 | 100 | 100 | 100
O=[N+]([O-])C(=Cc1cc(Br)co1)C1=NCCN1CC1CCOC1 (stereo not drawn) [Compound 97] | 76 | 88 | 90 | 86
N#CC(=Cc1oc(Cl)cc1Cl)C1=NCCN1Cc1ccc(Cl)nc1 [Compound 143] | 75 | 100 | 86 | 85
O=[N+]([O-])C(=Cc1ccc(Cl)nc1)C1=NCCN1Cc1ccc(Cl)nc1 [Compound 40] | 45 | 44 | 67 | 56
CC[N+]1=C(C(=Cc2ccsc2)[N+](=O)[O-])N(Cc2ccc(Cl)nc2)CC1.[Cl-] [Compound 292] | 100 | 100 | 100 | 100
O=[N+]([O-])C(=Cc1cc(Cl)cs1)C1=NCCN1Cc1ccc(Cl)nc1 [Compound 21] | 100 | 100 | 100 | 100
C[N+]1=C(C(=Cc2cc(Br)c(Br)s2)[N+](=O)[O-])N(Cc2ccc(Cl)nc2)CC1.[Cl-] [Compound 268] | 100 | 100 | 100 | 100
C[N+]1=C(C(=Cc2ccc(Cl)o2)[N+](=O)[O-])N(Cc2cnc(Cl)s2)CC1.[Cl-] [Compound 278] | 100 | 100 | 100 | 100
O=[N+]([O-])C(=Cc1cc(Br)co1)C1=NCCCN1Cc1ccc(Cl)nc1 [Compound 52] | 100 | 100 | 100 | 100
